Experimental data as given in US5912183A, “Peptide inhibitors of mitogenesis and motogenesis” (Pharmacia & Upjohn S.p.A., priority 1993, dated 1999).
Residues, ends and D or L forms follow the SMILES beside them.

Assays:
[1] = tested on: N- and C-SH2 domains of p85; test: BIAcore inhibition of binding of GST-SH2 domains to immobilized PDGF receptor phosphopeptide Y751; parameters: species or system bovine; details: range of phosphopeptide concentrations; 25° C.; FIG. 7
Protocol: FIG. 7. Evaluation of the relative affinities of phosphotyrosine 1313, 1349 and 1356 for the N- and C- SH2 domains of p85. Affinities were determined by biospecific interaction analysis with the BIAcore instrument (Jonsson, U., Fagerstam, L., Roos, H., Ronnberg, J., Sjolander, Stenber, E., Stahlberg, R. Urbaniczky, C., Ostlin, H., and Malmquist. 1991. Surface plasmon reasonance and microfluidics for real time biospecific interaction analysis. Biotechniques 11: 520-527; Jonsson, U. and M. Malmquist. 1992. Real time biospecific analysis. The integration of surface plasmon reasonance detection, general biospecific interface chemistry and microfluidics into one analytical system p. 291-336. In F. Turner (ed), Advances in Biosensors, vol. 2 JAI Press, London; Karlsson, R., Michaelsson, A., and L. Mattsson. 1991. Kinetic analysis of monoclonal antibody-antigen interactions with a new biosensor based analytical system. J. Immunol. Meth. 145: 229-246).
Relative affinities were determined by measuring the ability of the phosphopeptides to inhibit the interaction of the SH2 domains with an immobilized phosphopeptide (DMSKDESVDY*VPMLDMK) (SEQ. ID NO: 26) which includes Y751 in the human PDGF receptor. Panel A and B show the results of these measurements, expressed as % inhibition of binding to phosphopeptide Y751.
GST-SH2 domain fusion proteins. The N- and C-SH2 domains of the bovine PI 3-kinase p85 subunit (amino acids 314-431 and 612-722) were obtained by polymerase chain reaction and cloned into the pGEX-2 bacterial expression vector (Smith, D. B., and Johnson K. S., Gene 67: 31-40 (1988).
Glutathione-S-transferase (GST)-SH2 fusion proteins were purified from bacterial lysates by glutathione affinity chromatography (Panayotou, G., et al. EMBO J., 11: 4261-4272 (1992)). Amino acid analysis on an Applied Biosystems 420A analyzer was used to determine the concentration of the recombinant proteins.
Analysis of the interaction of Y1349 and Y1356 with the p85 N- and C- SH2 domains using the BIAcore. […]

[2] = molecular target: T1, binding of p85 to HGF/SF receptor (Bos taurus, UniProt P23727); test: Competition of phosphopeptides with p85 for association with immobilized recombinant HGF/SF receptor (in vitro kinase assay readout); parameters: species or system human; details: phosphopeptide 10 μM; p85 from Sf9 lysates; FIG. 1
T1 construct: made in house; host or cells: Sf9 insect cells (baculovirus), for both p85 and the receptor
T1 sequence (P23727 whole entry): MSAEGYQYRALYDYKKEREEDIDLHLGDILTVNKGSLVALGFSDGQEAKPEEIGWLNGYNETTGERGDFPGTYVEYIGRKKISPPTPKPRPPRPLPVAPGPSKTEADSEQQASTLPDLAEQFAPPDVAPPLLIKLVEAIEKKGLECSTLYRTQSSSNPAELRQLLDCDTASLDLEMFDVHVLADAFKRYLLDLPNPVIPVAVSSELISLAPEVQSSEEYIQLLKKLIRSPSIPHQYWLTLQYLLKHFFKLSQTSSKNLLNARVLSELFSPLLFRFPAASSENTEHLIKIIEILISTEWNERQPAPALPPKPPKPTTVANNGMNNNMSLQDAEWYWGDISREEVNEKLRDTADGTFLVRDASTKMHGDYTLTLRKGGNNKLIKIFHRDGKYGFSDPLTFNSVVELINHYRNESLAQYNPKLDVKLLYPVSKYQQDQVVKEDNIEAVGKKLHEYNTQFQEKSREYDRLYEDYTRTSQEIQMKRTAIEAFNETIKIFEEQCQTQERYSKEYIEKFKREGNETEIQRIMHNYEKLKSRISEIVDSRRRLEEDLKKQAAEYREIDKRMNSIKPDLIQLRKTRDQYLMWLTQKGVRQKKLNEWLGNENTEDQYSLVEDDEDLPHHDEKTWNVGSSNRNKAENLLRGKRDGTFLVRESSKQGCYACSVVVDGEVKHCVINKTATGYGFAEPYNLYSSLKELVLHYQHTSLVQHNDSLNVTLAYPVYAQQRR
Protocol: FIG. 1. Inhibition of binding of p85 to HGF/SF receptor by tyrosine-phosphorylated peptides. Recombinant HGF/SF receptor was purified by immunoprecipitation from baculovirus-infected Sf9 cells using a rabbit polyclonal antiserum and phosphorylated with cold ATP. Lysates of Sf9 cells expressing p85 were pre-incubated with each of the phosphopeptides (10 μM). The lysates were then allowed to associate with immobilized recombinant HGF/SF receptors. Following association the complex was washed and receptor-bound p85 was detected by an in vitro kinase assay, as described in Materials and Methods of Example 4. The phosphopeptides are identified by the number of the amino terminal tyrosine.
FIG. 2. Inhibition of binding of p85 to HGF/SF receptor with different concentrations of tyrosine-phosphorylated peptides. The phosphopeptides which efficiently out-competed p85 binding to the HGF/SF receptor (FIG. 1) were used at increasing concentrations (10 nM, 100 nM, 1 μM from left to right) to define their relative affinities for p85. Conditions of the experiment were as in FIG. 1. Phosphopeptide 1365 was used as a negative control for p85 interaction.
In vitro association experiments. Sf9 cells expressing the recombinant HGF/SF receptor (approximately 4×10^6 cells/point) were lysed 36 hours after infection in buffer A (10 mM Tris-HCl buffer pH 7.5, 10% glycerol, 1% Triton X-100, 150 mM NaCl, 5 mM EDTA), supplemented with 0.2 mM phenyl-methylsulfonyl fluoride, 1 μg/ml leupeptin, 0.1 TIU/ml aprotinin and 1 μg/ml pepstatin. Lysates were clarified at 15,000×g at 4° C. for 15 minutes and the supernatants immunoprecipitated after 2 hours incubation with anti-Met antibodies coupled to Protein A-Sepharose. Immunocomplexes were washed three times with buffer A, once with buffer B (10 mM Tris-HCl pH 7.4, 100 mM NaCl, 1 mM EDTA) and once with buffer C (25 mM 4-(2-hydroxyethyl)-1-piperazine-ethanesulfonic acid (HEPES) buffer pH 7.2, 100 mM NaCl, 5 mM MgCl2). Samples were pre-phosphorylated by incubation for 15 minutes at 25° C. in buffer C with 10 μM unlabelled ATP and then washed three times with cold buffer A supplemented with 1 mM sodium ortho-vanadate. Association between the immobilized receptor and the baculovirus-expressed p85 was carried out as previously described (Bardelli, A., et al., Oncogene 7: 1973-1978 (1992)). For the association experiments with the PI 3-kinase holoenzyme three days serum-starved A549 cells (approx. 2×10^6 cells/point) were used as a source of PI 3-kinase. A549 cells were Dounce-homogenized in MOPS buffer (20 mM 3-(N-morpholino)propanesulfonic acid) (pH 7.5), 1 mM MgCl2, 0.1 mM EDTA, 200 mM sucrose, 1 mM sodium ortho-vanadate), supplemented with 0.2 mM phenylmethylsulfonyl fluoride, 1 μg/ml leupeptin, 0.1 TIU/ml aprotinin and 1 μg/ml pepstatin. Homogenates were centrifuged at 100,000×g for 20 minutes at 4° C. When checking for the ability of phosphopeptides to block the association with the receptor, cell lysates were pre-incubated with the phosphopeptides for 1 hour at 4° C. prior to incubation with the immobilized recombinant HGF/SF receptor. Following association, immunocomplexes were washed three times with buffer A, twice with buffer D (0.5M LiCl, 100 mM Tris-HCl pH 7.6), and twice with buffer B.
The presence of the p85 subunit of the PI 3-kinase in the receptor immunoprecipitate was determined by: i) labelling of the receptor and associated proteins with [γ-^32 P]ATP by in vitro kinase assay; ii) Western immunoblotting; iii) PI 3-kinase activity assay.
In vitro kinase assay. Receptor-associated proteins were labelled in 20 μl of buffer C, in the presence of 10 μCi [γ-^32 P]ATP (specific activity 7,000 Ci/Mm; Amersham) at 25° C. for 15 minutes. The reaction was stopped by adding 1 ml of ice-cold Buffer A without protease inhibitors. Samples were washed three times with cold buffer A. The labelled immunocomplexes were eluted from Protein A-Sepharose in boiling Laemmli buffer. […]

SMILES | Apparent relative affinity: inhibition of binding of p85 N- and C-SH2 domains to phosphopeptide Y751 [1] | Inhibition of binding of p85 to HGF/SF receptor [2]
CC(C)[C@H](NC(=O)[C@H](CS)NC(=O)[C@H](CCCCN)NC(=O)[C@@H](NC(=O)[C@H](CC(N)=O)NC(=O)[C@@H](NC(=O)[C@@H](N)Cc1ccc(OP(=O)(O)O)cc1)C(C)C)C(C)C)C(=O)N[C@@H](C)C(=O)O [H-Tyr*-Val-Asn-Val-Lys-Cys-Val-Ala-OH] (HELM PEPTIDE1{[N[C@@H](Cc1ccc(OP(=O)(O)O)cc1)C(=O)[*:2]].V.N.V.K.C.V.A}$$$$V2.0) | inhibit binding of p85 N- and C-SH2 domains to phosphopeptide Y751, but at higher concentrations | efficiently outcompeted p85
CC(C)[C@H](NC(=O)[C@H](Cc1c[nH]cn1)NC(=O)[C@@H](NC(=O)[C@@H](N)Cc1ccc(OP(=O)(O)O)cc1)C(C)C)C(=O)N[C@@H](CC(N)=O)C(=O)N[C@@H](C)C(=O)N[C@H](C(=O)N[C@@H](Cc1ccc(O)cc1)C(=O)O)[C@@H](C)O [H-Tyr*-Val-His-Val-Asn-Ala-Thr-Tyr-OH] (HELM PEPTIDE1{[N[C@@H](Cc1ccc(OP(=O)(O)O)cc1)C(=O)[*:2]].V.H.V.N.A.T.Y}$$$$V2.0) | inhibit binding of p85 N- and C-SH2 domains to phosphopeptide Y751, but at higher concentrations | efficiently outcompeted p85
